Experimental data: ChEMBL document CHEMBL1136645, “The identification of clinical candidate SB-480848: a potent inhibitor of lipoprotein-associated phospholipase A2” (Bioorg Med Chem Lett, 2003)

Tests used:
[1] = target: T1, Platelet-activating factor acetylhydrolase (Homo sapiens, UniProt Q13093); test: Inhibitory activity against recombinant human Lp-PLA2
T1 sequence (Q13093 whole entry): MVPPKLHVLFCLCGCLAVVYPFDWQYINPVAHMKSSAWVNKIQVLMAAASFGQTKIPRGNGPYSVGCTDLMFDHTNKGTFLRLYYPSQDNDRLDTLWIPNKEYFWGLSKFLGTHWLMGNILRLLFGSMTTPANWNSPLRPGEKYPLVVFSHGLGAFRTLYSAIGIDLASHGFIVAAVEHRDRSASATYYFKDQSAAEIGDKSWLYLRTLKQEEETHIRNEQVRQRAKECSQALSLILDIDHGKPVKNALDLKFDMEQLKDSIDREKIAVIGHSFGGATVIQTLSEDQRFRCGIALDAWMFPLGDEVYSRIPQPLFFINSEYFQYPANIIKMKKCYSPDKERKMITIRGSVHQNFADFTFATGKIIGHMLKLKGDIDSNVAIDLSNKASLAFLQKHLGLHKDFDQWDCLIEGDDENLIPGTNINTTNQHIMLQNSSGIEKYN

[2] = Permeability was determined; format: ADME; conditions: not told; read-out: Permeability (converted)
Cytochrome P450 2D6 = Cytochrome P450 2D6 (Homo sapiens, UniProt P10635); test: Inhibitory activity against Cytochrome P450 2D6; format: ADME
Cytochrome P450 3A4 = Cytochrome P450 3A4 (Homo sapiens, UniProt P08684); test: Inhibitory activity against CYP450 3A4 isozyme; format: ADME
[3] = Permeability in plasma; format: ADME, cell-free; conditions: not told; read-out: Permeability (converted)
[4] = Oral bioavailability in fed rat; format: ADME, organism-based; conditions: in vivo
Homo sapiens [5] = species on record: Homo sapiens; test: Inhibitory concentration against lyso-PtdCho production in human LDL
Homo sapiens [6] = species on record: Homo sapiens; test: Inhibitory concentration against monocyte chemotaxis
[7] = Oral bioavailability in fasted rat; format: ADME, organism-based; conditions: in vivo
[8] = Oral bioavailability in dog; format: ADME, organism-based, Canis lupus familiaris; conditions: in vivo

Chain of Cytochrome P450 3A4 (P08684 whole entry): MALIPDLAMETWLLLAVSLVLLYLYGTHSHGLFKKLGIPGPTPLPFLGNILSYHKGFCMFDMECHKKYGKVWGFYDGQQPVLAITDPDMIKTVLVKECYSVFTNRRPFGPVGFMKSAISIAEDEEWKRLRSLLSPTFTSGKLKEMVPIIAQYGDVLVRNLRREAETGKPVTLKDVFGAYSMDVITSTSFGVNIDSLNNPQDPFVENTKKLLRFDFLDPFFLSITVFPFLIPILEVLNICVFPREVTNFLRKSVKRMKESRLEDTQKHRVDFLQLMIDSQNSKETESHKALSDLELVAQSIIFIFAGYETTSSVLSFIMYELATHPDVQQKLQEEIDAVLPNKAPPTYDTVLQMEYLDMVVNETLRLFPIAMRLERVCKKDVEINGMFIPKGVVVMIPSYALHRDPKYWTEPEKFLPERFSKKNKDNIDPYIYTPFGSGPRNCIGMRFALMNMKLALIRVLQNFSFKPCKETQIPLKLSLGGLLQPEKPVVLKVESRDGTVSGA
Chain of Cytochrome P450 2D6 (P10635 whole entry): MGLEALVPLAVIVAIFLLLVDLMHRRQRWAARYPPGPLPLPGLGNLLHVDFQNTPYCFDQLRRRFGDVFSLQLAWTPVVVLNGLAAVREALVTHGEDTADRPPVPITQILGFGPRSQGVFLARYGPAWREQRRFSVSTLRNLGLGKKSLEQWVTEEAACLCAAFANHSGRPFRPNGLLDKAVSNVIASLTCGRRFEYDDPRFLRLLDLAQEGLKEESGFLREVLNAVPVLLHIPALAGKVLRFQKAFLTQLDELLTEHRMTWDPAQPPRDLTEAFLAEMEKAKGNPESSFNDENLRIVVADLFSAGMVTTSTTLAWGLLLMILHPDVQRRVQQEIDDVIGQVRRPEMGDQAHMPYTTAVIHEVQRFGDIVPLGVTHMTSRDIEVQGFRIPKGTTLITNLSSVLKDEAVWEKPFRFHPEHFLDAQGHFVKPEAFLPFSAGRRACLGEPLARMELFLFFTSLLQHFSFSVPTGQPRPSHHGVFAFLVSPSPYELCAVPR

IC50 [1] [µM]	Papp [2] [×10⁻⁶ cm/s]	IC50 (Cytochrome P450 2D6) [µM]	IC50 (Cytochrome P450 3A4) [µM]	Papp [3] [×10⁻⁶ cm/s]	Compound	other results
0.038					CCN(CC)CCN(Cc1ccc(-c2ccc(C(F)(F)F)cc2)cc1)C(=O)Cn1cc(CCN)c(=O)nc1SCc1ccc(F)cc1	
	6.94				CCN(CC)CCN(Cc1ccc(-c2ccc(C(F)(F)F)cc2)cc1)C(=O)Cn1cc(OC)c(=O)nc1SCc1ccc(F)cc1	
0.003	30.6	83	29		CCN(CC)CCN(Cc1ccc(-c2ccc(C(F)(F)F)cc2)cc1)C(=O)Cn1cc(Cl)c(=O)nc1SCc1ccc(F)cc1	
0.0004		25	18	38.9	CCN(CC)CCN(Cc1ccc(-c2ccc(Cl)cc2)cc1)C(=O)Cn1c(SCc2ccc(F)cc2)nc(=O)c2c1CCC2	
0.0001		9	10	16.7	CCN(CC)CCN(Cc1ccc(-c2ccc(C(F)(F)F)cc2)cc1)C(=O)Cn1c(SCc2ccc(F)cc2)nc(=O)c2c1CCCC2	
	0.833				CCN(CC)CCN(Cc1ccc(-c2ccc(C(F)(F)F)cc2)cc1)C(=O)Cn1cc(CCO)c(=O)nc1SCc1ccc(F)cc1	
0.0004	27.8	24	11		CCc1cn(CC(=O)N(CCN(CC)CC)Cc2ccc(-c3ccc(C(F)(F)F)cc3)cc2)c(SCc2ccc(F)cc2)nc1=O	
0.001	22.2	39	17		CCN(CC)CCN(Cc1ccc(-c2ccc(C(F)(F)F)cc2)cc1)C(=O)Cn1cc(C)c(=O)nc1SCc1ccc(F)cc1	
0.0008	36.1	22	5		CCCc1cn(CC(=O)N(CCN(CC)CC)Cc2ccc(-c3ccc(C(F)(F)F)cc3)cc2)c(SCc2ccc(F)cc2)nc1=O	
	33.3	14	7		CCc1cn(CC(=O)N(CCN(CC)CC)Cc2ccc(-c3ccc(Cl)cc3)cc2)c(SCc2ccc(F)cc2)nc1=O	
0.0008	1.67				CCN(CC)CCN(Cc1ccc(-c2ccc(C(F)(F)F)cc2)cc1)C(=O)Cn1cc([S+](C)[O-])c(=O)nc1SCc1ccc(F)cc1 (stereo unspecified)	
		47	22	13.9	CCN(CC)CCN(Cc1ccc(-c2ccc(C(F)(F)F)cc2)cc1)C(=O)Cn1c(C)cc(=O)nc1SCc1ccc(F)cc1	
0.001	25	56	39		CCN(CC)CCN(Cc1ccc(-c2ccc(C(F)(F)F)cc2)cc1)C(=O)Cn1cc(Br)c(=O)nc1SCc1ccc(F)cc1	
0.00025		6	5		CCN(CC)CCN(Cc1ccc(-c2ccc(Cl)cc2)cc1)C(=O)Cn1c(SCc2ccc(F)cc2)nc(=O)c2c1CCCC2	
0.006				0.833	CCN(CC)CCN(Cc1ccc(-c2ccc(C(F)(F)F)cc2)cc1)C(=O)Cn1cc(CCNC(C)=O)c(=O)nc1SCc1ccc(F)cc1	
					CCN(CC)CCN(Cc1ccc(-c2ccc(C(F)(F)F)cc2)cc1)C(=O)Cn1cc(Cc2cnn(C)c2)c(=O)nc1SCc1ccc(F)cc1	bioavailability [4]: 2%
		24	22	8.33	CCN(CC)CCN(Cc1ccc(-c2ccc(C(F)(F)F)cc2)cc1)C(=O)Cn1c(SCc2ccc(F)cc2)nc(=O)c(C)c1C	
	27.8	15	13		CCN(CC)CCN(Cc1ccc(-c2ccc(Cl)cc2)cc1)C(=O)Cn1cc(C)c(=O)nc1SCc1ccc(F)cc1	
0.001				1.39	CCN(CC)CCN(Cc1ccc(-c2ccc(C(F)(F)F)cc2)cc1)C(=O)Cn1cc(CCNS(C)(=O)=O)c(=O)nc1SCc1ccc(F)cc1	
0.0008	8.33	39	15		CCN(CC)CCN(Cc1ccc(-c2ccc(C(F)(F)F)cc2)cc1)C(=O)Cn1cc(SC)c(=O)nc1SCc1ccc(F)cc1	
0.0015	0.556				CCN(CC)CCN(Cc1ccc(-c2ccc(C(F)(F)F)cc2)cc1)C(=O)Cn1cc(CO)c(=O)nc1SCc1ccc(F)cc1	
		26		27.8	CCN(CC)CCN(Cc1ccc(-c2ccc(C(F)(F)F)cc2)cc1)C(=O)Cn1c(SCc2ccc(F)cc2)nc(=O)c2c1CCC2 [DARAPLADIB]	IC50 (Homo sapiens [5]): 4 µM; IC50 (Homo sapiens [6]): 4 µM; bioavailability [4]: 11%; bioavailability [7]: ~21%; bioavailability [8]: 28%
